Laboratory results published in patent US6537545B1, “Use of corneal hardening agents in enzymeorthokeratology” (ISTA Pharmaceuticals, Inc., priority 1998, dated 2003).

Legend:
Assay type in all cases: in vivo
[1] = test system: Dutch Belted rabbit corneas; test: Histopathologic examination of harvested corneas (Example 1); conditions: rabbits; eyes harvested Study Day 58
Description: The animals were sacrificed and their eyes were harvested on Study Day 58. The animals in the study were euthanised using an intravenous injection of pentobarbital (2 mg/kg). The eyes of the animals were enucleated immediately after sacrifice using Castro-Viejo scissors. The corneas of the eyes were then removed and placed on the end of a glass tube and cut in half. These samples were then snap frozen in liquid nitrogen. […] The corneas were then sectioned, stained with hematoxylin/eosin and the slides were sent to a Board-certified Veterinary Pathologist for interpretation.

Dutch Belted rabbit eyes [2] = test: GLP safety study, slit lamp biomicroscopy and intraocular pressure (Example 3)
Description: This study was conducted in compliance with the Good Laboratory Practices requirements of the U.S. Food and Drug Administration. Here, 27 eyes were randomly chosen to form the control group and the remaining 27 eyes formed the experimental group. All of the animals received ophthalmic examinations consisting of slit lamp biomicroscopy (as described in Experiment 2) and intraocular pressure measurements (IOP) as generally practiced in the art, before the experiment began to establish baseline conditions.
Following baseline examinations, all rabbits received 500 IU in 20 μL of hyaluronidase into the corneal stroma bilaterally using the injection method described in Experiment 1. No examinations or treatments were performed on the animals until Study Day 8. On Study Day 8, the animals received slit lamp examinations and IOP measurements.
Treatment with topical eyedrops began immediately after the Day 8 examinations. Each rabbit received 2 drops of test agent four times a day at 05:00, 09:00, 13:00 and 17:00. The 3% glyceraldehyde solution was prepared in 0.9% sodium chloride USP under Good Manufacturing Practices (GMP). The 0.9% sodium chloride for injection was also prepared using GMP. Each rabbit eye in the experimental group received the 3% glyceraldehyde solution while the control eyes received a 0.9% sodium chloride solution. […]

Dutch Belted rabbit eyes [3] = test: GLP safety study, histopathology (Example 3); conditions: rarely noted in both glyceraldehyde and saline treated groups; Study Day 40
Text: On Study Day 40, after 32 days of drops, the animals were sacrificed and the eyes were harvested according to the methods described in Experiment 2. The eyes were fixed in half-strength Karnovsky's fixative as described in Experiment 2 and sent to a Board Certified Veterinary Pathologist for interpretation.

[4] = test system: eyes of myopic human subjects; test: Mild myopia study, group III: corrective lenses and 3% glyceraldehyde without hyaluronidase (Example 9); conditions: for UVA at follow-up after end of treatment: no hyaluronidase
Text: Given the favorable results obtained in Example 8, an additional study was undertaken to test the safety and efficacy of the method of the present invention using a larger group of subjects. In this study, a group of subjects were selected and randomly separated into three test groups to test the safety and efficacy of using hyaluronidase and a glyceraldehyde solution for treating subjects with sub-optimal visual acuity. Groups one and two received an intrastromal injection of hyaluronidase (50 and 500 IU, respectively), while group three received a control injection of saline.
Following a two week incubation period after the injection, the three groups were fitted with corrective lenses to optimize the visual acuity of the subjects. The corrective lenses were left in place for a period of time sufficient to alter the shape of the subjects' eyes so as to achieve an optimal visual acuity. This period of time was generally 2 days in length. Once an acceptable visual acuity was achieved, the subjects in the three groups received a topical 3% glyceraldehyde solution in the form of ophthalmic drops four times per day while wearing the corrective lenses. The glyceraldehyde treatment was generally administered for one month. Lens wear occurred from 8 to 12 hours during the day.
At the end of the treatment period both the lens wear and the glyceraldehyde solution administration was terminated. The general health and visual acuity of the subjects was monitored from 3 to 5 months following treatment termination.
As with groups I and II, the test subjects were examined initially to establish a baseline from which the future results of the treatment were compared. Following the establishment of a baseline reading, group III subjects were fitted with contact lenses and wore the corrective lenses at night for a period of two (2) to seven (7) days or until an acceptable visual acuity (approximately 20/20) was achieved. Unlike groups I and II, group III test subjects in this group received no injection of hyaluronidase during the course of treatment. Subjects achieving an acceptable visual acuity received the topical 3% glyceraldehyde solution in the form of ophthalmic drops four times per day (08:00, 12:00, 16:00, and 20:00) for a period of 1 month in conjunction with daytime lens wear for stabilization. During this period, lens wear occurred for approximately 8-12 hours per day and there was no nocturnal lens wear.
The subjects were examined periodically during the glyceraldehyde treatment to monitor changes in the health of the treated eyes.
At the end of the treatment period, the stabilizing lens were removed and the administration of the 3% glyceraldehyde solution was terminated. Following termination of the treatment, the subjects were examined immediately after treatment was terminated, once a week for the first four weeks after termination, and then monthly to measure changes in the visual acuity of the treated eyes. The health of the eye was also monitored. Sequelae characterized by the appearance or worsening of serious ocular symptoms or slit-lamp findings observed during these examinations was assessed. The proportions of subjects with such findings were analyzed.
The visual acuity values shown are obtained using the Snellen letters test and the Early Treatment Diabetic Retinopathy Study (ETDRS) protocol. The table values shown are the better values as compared between the results of the two methods. The subjects' baseline visual acuity ranged from 20/80 to 20/300.

histopathologic differences between corneas of control and treated groups [1]: no appreciable differences
Compound: O=CC(O)CO (stereo not shown) [glyceraldehyde]
overall deleterious effects in rabbits (Dutch Belted rabbit eyes [2]; 3% glyceraldehyde solution, 32 days): no significant deleterious effects
number of the 14 criteria (slit lamp findings, IOP) with statistically significant differences between control and glyceraldehyde treated groups (Dutch Belted rabbit eyes [2]; 27 rabbits, 500 IU hyaluronidase bilaterally, 3% glyceraldehyde 2 drops four times a day, 32 days vs 0.9% sodium chloride, any timepoint): None
histopathology: focal increase in cellularity of corneal stroma, reduplication of Descemet's membrane, relation to treatment (Dutch Belted rabbit eyes [3]): not associated with treatment with the drops
overall effect on retention of orthokeratology benefits ([4]; glyceraldehyde treatment in the absence of hyaluronidase): effective in extending the retention time
UVA at follow-up after end of treatment ([4]; subject 005, four month time point, baseline 20/100): 20/100
UVA at follow-up after end of treatment ([4]; subject 006, five month time point, baseline 20/200): 20/100
UVA at follow-up after end of treatment ([4]; subject 012, four month time point, baseline 20/200): 20/100
UVA at follow-up after end of treatment ([4]; subject 014, three month time point, baseline 20/80): 20/50
UVA at follow-up after end of treatment ([4]; subject 016, four month time point, baseline 20/300): 20/80
UVA at follow-up after end of treatment ([4]; subject 016, three month point, baseline 20/300): 20/60
UVA at follow-up after end of treatment ([4]; subject 021, two month time point, baseline 20/80): 20/60
UVA at follow-up after end of treatment ([4]; subject 032, two month time point, baseline 20/120): 20/60
